In patent US5583117A (priority 1993, dated 1996):

Legend:
[1] = system: central nervous system pathologies; conditions: brain edema, cranial trauma, cerebral ischemia, chronic cerebrovascular diseases, Parkinson's disease; cited from earlier work
[2] = cited from earlier work
[3] = Bioavailability of uridine and acyl uridine derivatives in rats (plasma by HPLC); format: in vivo, male F344 rats; conditions: rat, intubation into stomach, 0.28 moles/kg (printed), for at least four hours following ingestion
From the text: Silastic catheters were implanted into the right jugular veins of anesthetized male F344 rats (Retired Breeders, 450-500 grams). After three days of recovery from surgery, the animals were placed in deep cylindrical cages, and their catheters were extended with a lengthened polyvinyl tubing, so that blood samples would be withdrawn without disturbing the rats. Basal blood samples were taken and the animals were divided into four groups, each containing four rats.

[4] = in vivo, po
Experimental: Blood samples (0.5 ml) were withdrawn at intervals of 1, 2, 3, and 4 hours after ingestion of the compound and were processed for subsequent determination of plasma uridine content by HPLC. On a separate day, the same procedure was carried out, except that an equal molar dose (18 mg/kg--1.3 grams in a 70 kilogram subject) of uridine was ingested instead of the acyl derivative.

[5] = system: adrenalin-induced myocardial necrosis; conditions: cited from earlier work; for mortality and myocardial function: ECG readings, biochemical findings, relative heart weight
[6] = system: isolated dog heart; conditions: cited from earlier work
[7] = system: isolated rat heart; conditions: cited from earlier work
[8] = system: skeletal muscles; conditions: rat, in vivo; cited from earlier work
[9] = system: pyrimidine nucleoside phosphorylases; conditions: rat, in vivo; cited from earlier work
[10] = system: brain; conditions: in vivo; cited from earlier work
[11] = system: atrial tissue; conditions: in vitro; cited from earlier work
[12] = system: tyrosine-alpha-ketoglutarate; conditions: alone or in various combinations; cited from earlier work
[13] = system: isolated rat diaphragm muscle; conditions: cited from earlier work
[14] = system: adipose tissue; conditions: cited from earlier work
[15] = system: myocardial glycogen; conditions: cited from earlier work; for myocardial glycogen: intravenous infusion
[16] = system: liver function; conditions: in vivo; cited from earlier work
[17] = system: adrenalin-induced myocardial dystrophy; conditions: rat, in vivo; cited from earlier work
[18] = system: isolated rat hearts; conditions: reperfusion after low-flow ischemia; cited from earlier work
[19] = system: isolated rat hearts; conditions: cited from earlier work
[20] = system: isolated rabbit hearts; conditions: cited from earlier work
[21] = system: myocardium; conditions: pretreatment; 2 hours after aortic stenosis; cited from earlier work
[22] = system: heart; conditions: cited from earlier work
[23] = system: skeletal and cardiac muscle; conditions: cited from earlier work
[24] = system: isolated, perfused rat liver; conditions: in a single passage; cited from earlier work
[25] = system: hepatocytes; conditions: cited from earlier work
[26] = system: experimentally-induced seizures; conditions: intraperitoneal injection; cited from earlier work
[27] = cited from earlier work; remark: listed apart in the source

C[N+](C)(C)CCOP(=O)(O)OP(=O)([O-])OC[C@H]1O[C@@H](n2ccc(N)nc2=O)[C@H](O)[C@@H]1O [CDP-choline, cytidine-diphosphocholine]
therapeutic efficacy [1]: Therapeutic efficacy has been documented
time of breakdown to cytidine and choline ([2]; intravenous injection): ≤ 30 s
intact compound in circulation ([2]; oral): no intact CDP-choline enters the circulation
plasma cytidine and choline concentrations ([2]; oral): rise
degradation following administration ([2]; yielding cytidine, choline, and phosphate): very rapidly degraded

CC(=O)OC[C@H]1O[C@@H](n2ccc(=O)[nH]c2=O)[C@H](OC(C)=O)[C@@H]1OC(C)=O [TAU, 2',3',5'-tri-O-acetyl uridine]
plasma levels of uridine vs equimolar dose of uridine [3]: significantly higher for at least four hours
plasma level of uridine vs equal molar dose of uridine [4]: substantially higher
plasma uridine level [4]: exceeded 10 micromolar
time uridine levels sustained in the useful therapeutic range [4]: at least four

O=c1ccn([C@@H]2O[C@H](COP(=O)([O-])[O-])[C@@H](O)[C@H]2O)c(=O)[nH]1.[Na+].[Na+] [UMP, Sodium uridine monophosphate]
mortality and myocardial function [5]: reduced mortality and improved myocardial function
prophylactic effect vs potassium orotate ([5]; in vivo): more pronounced prophylactic effect
resistance to adrenalin-induced myocardial necrosis ([5]; in vivo): increase the animal's resistance

Nc1ncnc2c1ncn2[C@@H]1O[C@H](CO)[C@@H](O)[C@H]1O [adenosine]
inotropic effect [6]: negatively inotropic

Nc1ccn([C@@H]2O[C@H](CO)[C@@H](O)[C@H]2O)c(=O)n1 [cytidine]
inotropic effect [6]: negatively inotropic
myocardial cytosine nucleotide levels ([7]; 30 minute supply of cytidine): significantly increased
conversion of cytidine taken up into uridine nucleotides [7]: Very little
muscular concentrations of Krebs cycle intermediates [8]: affect the muscular concentrations of Krebs cycle intermediates
specific activity of liver homogenates [9]: increased
brain uptake [10]: not very readily taken up by the brain

O=C[C@H](O)[C@@H](O)[C@H](O)[C@H](O)CO [glucose]
contractability and extensibility of atrial tissue [11]: restored

Nc1nc2c(ncn2[C@@H]2O[C@H](CO)[C@@H](O)[C@H]2O)c(=O)[nH]1 [guanosine]
inotropic effect [6]: positive inotropic

C[C@]12CCC(=O)C=C1CC[C@@H]1[C@@H]2[C@@H](O)C[C@@]2(C)[C@H]1CC[C@]2(O)C(=O)CO [hydrocortisone]
tyrosine-alpha-ketoglutarate activity [12]: increase

OC[C@H]1O[C@@H](n2cnc3c(O)ncnc32)[C@H](O)[C@@H]1O [inosine]
inotropic effect [6]: positive inotropic
glucose uptake [13]: stimulate glucose uptake
lipolysis [14]: inhibited lipolysis

CC(C)NCC(O)c1ccc(O)c(O)c1 (stereo not shown) [isoproterenol]
cardiac glycogen stores, myocardial UTP and UDP-glucose levels ([15]; isoproterenol): depleted cardiac glycogen stores and reduced myocardial UTP and UDP-glucose levels

O=C([O-])c1cc(=O)[nH]c(=O)[nH]1.[K+] [potassium orotate]
mortality and myocardial function [5]: reduced mortality and improved myocardial function
resistance to adrenalin-induced myocardial necrosis ([5]; in vivo): increase the animal's resistance

O=C[C@H](O)[C@H](O)[C@H](O)CO [ribose]
myocardial glycogen [15]: restoration of myocardial glycogen

Cc1cn([C@H]2C[C@H](O)[C@@H](CO)O2)c(=O)[nH]c1=O [thymidine]
inotropic effect [6]: positive inotropic

O=c1ccn([C@@H]2O[C@H](COP(=O)(O)OP(=O)(O)O)[C@@H](O)[C@H]2O)c(=O)[nH]1 [uridine diphosphate]
improvement of liver function [16]: improve certain aspects of liver function

O=c1ccn([C@@H]2O[C@H](COP(=O)(O)O)[C@@H](O)[C@H]2O)c(=O)[nH]1 [uridine-5'-monophosphate]
protective effect in adrenalin-induced myocardial dystrophy [17]: protective effect

O=C(O)[C@H]1O[C@H](OP(=O)(O)OP(=O)(O)OC[C@H]2O[C@@H](n3ccc(=O)[nH]c3=O)[C@H](O)[C@@H]2O)[C@H](O)[C@@H](O)[C@@H]1O [uridine-diphosphoglucuronic acid]
improvement of liver function [16]: improve certain aspects of liver function

O=c1ccn([C@@H]2O[C@H](CO)[C@@H](O)[C@H]2O)c(=O)[nH]1 [uridine]
plasma uridine level [4]: exceeded 10 micromolar
myocardial ATP levels, total adenine nucleotide content, uridine nucleotide levels, glycogen content [18]: induced restoration
rate of incorporation of uridine ([19]; following low-flow ischemia): increased twofold
myocardial uracil nucleotide content ([19]; perfusion): concentration-dependent elevation
myocardial glycogen [15]: restoration of myocardial glycogen
inotropic effect [6]: positive inotropic
myocardial performance, glucose uptake, glycolysis, glycogen and adenine nucleotides ([20]; hypoxic hearts): increased myocardial performance, glucose uptake and glycolysis and also diminished the disappearance of glycogen and adenine nucleotides
glucose uptake, glycolysis, ATP and glycogen levels, myocardial performance ([20]; propranolol-treated hearts): increased glucose uptake, glycolysis, levels of ATP and glycogen, as well as myocardial performance
decrease in maximal pressure upon aortic ligation [21]: prevented
contractability and extensibility of atrial tissue [11]: restored
protective effect in adrenalin-induced myocardial dystrophy [17]: relatively ineffective
supporting myocardial hyperfunction ([22]; in vivo): relatively ineffective
myocardial heart-pathology benefit of uridine in intact animals ([22]; intact (alive and free-running) animals): no beneficial effect
difference from controls in rats developing hypertrophy of the heart ([22]; rat, in vivo): no difference
glucose uptake and glycogen synthesis [23]: enhance glucose uptake and glycogen synthesis
glucose uptake [13]: stimulate glucose uptake
glycogen synthesis [13]: only uridine increased glycogen synthesis
lipolysis [14]: inhibited lipolysis
degradation of infused uridine [24]: more than 90%
incorporation of glucose into glycogen [25]: increase
tissue uridine nucleotide pools [25]: expanded
anticonvulsant effect [26]: strong protection
plasma levels of uridine ([27]; mouse, in vivo, po, 350 mg/kg): not perturbed
elevation of plasma uridine levels ([27]; mouse, in vivo, po, 3500 mg/kg): observed only after oral administration of high doses
time to return of plasma uracil to normal ([27]; oral uridine, 350 mg/kg): 4 h
